Measurements as given in patent US11918553B2, “Anti-oncogenic phytochemicals comprising substituted henicosanoic acid and henicosenoic acid” (Ostentus Therapeutics, Inc., priority 2022, dated 2024).

Key:
Assay in all cases: Apoptosis flow cytometry assay of HPLC fractions and synthesized compounds
MV-4-11 cells = format: cell-based, human
Procedure: Apoptosis flow cytometry assays were performed essentially as described in Example 3. In one series of experiments, cultures MV-4-11 cells were grown to an appropriate density and approximately 20,000 cells/100 μL were seeded into wells of 96-well cell culture microplate. For each fraction, either 0.5 μL/mL of a fraction or 1 μL/mL of a fraction was then added to transferred cells for each cell line and incubated for 24 hours at 37° C. in 5% CO2 incubator. […] Cells were then assessed for apoptosis by an apoptosis flow cytometry assay employing with a fluorochrome-conjugated Annexin V and/or the fluorescent nucleic acid dye 4,6-diamidino-2-phenylindole (DAPI) (APC Annexin V, BD Bioscience, CA) following protocols provided by the manufacture. […] Aliquots were then incubated in the dark for 15 minutes with either 1) an Annexin-V-APC conjugate and DAPI, 1) an Annexin-V-APC conjugate; or 3) DAPI. An unstained aliquot was also set up as a negative control to define the basal level of apoptotic and dead cells. The percentage of cells that have been induced to undergo apoptosis is then determined by subtracting the percentage of apoptotic cells in the unstained aliquot from percentage of apoptotic cells in the stained aliquot. After staining, cells were washed in ice-cold PBS and resuspended in 300 μL of the Annexin V buffered solution, and analysis by flow cytometry using an LSR II flow cytometer (BD Bioscience, CA). […] Mean cell numbers between the OST-01 treated and control group was statistically analyzed by using unpaired, two-tailed Student's t test, with values from at least two independent experiments with triplicate determination. […]
Raw data obtained from these analyses were searched against a natural product databases, a flavonoid database, and other chemspider databases centered to plant natural products for putative identification. IN addition, based on the most abundant precursor ions detected in DI-MS, compounds were manually searched to assign putative identify of the abundant compounds. […]

THP-1 cells = format: cell-based; conditions: THP-1, highest amount tested (200 μM), relative to ethanol or DMSO negative controls (FIG. 26B)
HL-60 cells = format: cell-based, human; conditions: HL-60, highest amount tested (50 μM)

Compound | increase in Annexin V positive cells (MV-4-11 cells; MV-4-11, highest amount tested (50 μM), relative to ethanol negative control (FIG. 27A)) | increase in Annexin V positive cells (MV-4-11 cells; MV-4-11, highest amount tested (200 μM), relative to ethanol or DMSO negative controls (FIG. 26A)) [%] | increase in Annexin V positive cells (THP-1 cells) [%] | increase in DAPI positive cells (MV-4-11 cells; MV-4-11, up to 30 μM, relative to ethanol negative control, decline at higher concentrations (FIG. 28A)) [fold] | increase in DAPI positive cells (HL-60 cells; relative to ethanol negative control (FIG. 28B)) | increase in Annexin V positive cells (HL-60 cells; relative to ethanol or DMSO negative controls (FIG. 27B))
O=C(O)/C=C/CCCCCCCCCCCCCCCCCCO [(2E)-21-Hydroxy-2-henicosenoic acid] | over 2 fold | ≥ 55 | ≥ 50 | – | – | –
O=C(O)CCCCCCCCCCCCCCCCCCCCO | – | – | – | ≥ 8 | over 4 fold | over 1.5 fold
